System: NF-κB activation
Experiment: Inhibitory activity against NF-κB activation, luciferase reporter assay under TNF-α stimulation
Assay type: cell-based, human
Details: HepG2 cells, TNF-α 40 ng/ml, 4 hours; for inhibition at 1 µg/mL / inhibition at 10 µg/mL: Homo sapiens, read-out: Inhibitory Ratio of NF-κ B Activation(%)
Procedure: Inhibitory activity against NF-κB activation was measured by referring to the method of Hill et al. (Cell, (USA), in 1993, Vol. 73, No. 2, p. 395-406). Using a transfection reagent(Effectene; QIAGEN), the human hepatoma cell strain HepG2 was transfected with a plasmid (pNFκ Luc Reporter Plasmid; STRATAGENE) integrated with an oligonucleotide having five tandem copies of NF-κB binding sequences(TGGGGACTTTCCGC) on a upstream region of firefly luciferase gene (Luc) according to the QIAGEN's protocol, and the cells were incubated for 6 to 24 hours. Then the cells were cultured for 4 hours after the addition of TNF-α (40 ng/ml) in the presence of a test compound, and intracellular luciferase activity was measured by using PicaGene LT (TOYO INK MFG Co., Ltd.) and a chemical luminescence measurement apparatus(SPECTRAFluor Plus; TECAN). The inhibitory ratio was measured as a ratio relative to a value of the luciferase activity in the absence of the test compound.

Row | SMILES | inhibition at 1 µg/mL (Drug Concentration 1 μg/mL) | inhibition at 10 µg/mL (Drug Concentration 10 μg/mL) | Inhibitory Ratio of NF-κ B Activation(%) (Drug Concentration 1 μg/mL) | Inhibitory Ratio of NF-κ B Activation(%) (Drug Concentration 10 μg/mL)
1 | CC(C)(C)C(=O)Oc1ccc(Cl)cc1C(=O)Nc1cc(C(F)(F)F)cc(C(F)(F)F)c1 [Compound 1, 5-Chloro-2-pivaloyloxy-N-[3,5-bis(trifluoromethyl)phenyl]benzamide] | 94.9% | 95.8% | – | –
2 | CCCCC(=O)Oc1ccc(Cl)cc1C(=O)Nc1cc(C(F)(F)F)cc(C(F)(F)F)c1 [Compound 2] | – | – | 97.9% | 98.6%
3 | CCCCCCCCCC(=O)Oc1ccc(Cl)cc1C(=O)Nc1cc(C(F)(F)F)cc(C(F)(F)F)c1 [Compound 3] | – | – | 96.1% | 98.4%
4 | O=C(Oc1ccc(Cl)cc1C(=O)Nc1cc(C(F)(F)F)cc(C(F)(F)F)c1)c1ccccc1 [Compound 4] | – | – | 94.2% | 97.5%
5 | CC(=O)Oc1ccccc1C(=O)Oc1ccc(Cl)cc1C(=O)Nc1cc(C(F)(F)F)cc(C(F)(F)F)c1 [Compound 5] | – | – | 96.1% | 98.0%
6 | O=C(Oc1ccc(Cl)cc1C(=O)Nc1cc(C(F)(F)F)cc(C(F)(F)F)c1)c1cccnc1 [Compound 6] | – | – | 94.4% | 98.1%
7 | O=C(Oc1ccc(Cl)cc1C(=O)Nc1cc(C(F)(F)F)cc(C(F)(F)F)c1)c1ccncc1 [Compound 7] | – | – | 93.9% | 98.8%
8 | O=C(Cc1ccccc1)Oc1ccc(Cl)cc1C(=O)Nc1cc(C(F)(F)F)cc(C(F)(F)F)c1 [Compound 8] | – | – | 95.0% | 97.9%
9 | O=C(Cc1ccc2c(c1)OCO2)Oc1ccc(Cl)cc1C(=O)Nc1cc(C(F)(F)F)cc(C(F)(F)F)c1 [Compound 9] | – | – | 94.6% | 97.3%
10 | COCC(=O)Oc1ccc(Cl)cc1C(=O)Nc1cc(C(F)(F)F)cc(C(F)(F)F)c1 [Compound 10] | – | – | 95.3% | 97.4%
11 | CC(=O)OCC(=O)Oc1ccc(Cl)cc1C(=O)Nc1cc(C(F)(F)F)cc(C(F)(F)F)c1 [Compound 11] | – | – | 97.3% | 99.2%
12 | O=C(COc1ccccc1)Oc1ccc(Cl)cc1C(=O)Nc1cc(C(F)(F)F)cc(C(F)(F)F)c1 [Compound 12] | – | – | 95.5% | 97.5%
13 | O=C(COc1ccc(Cl)cc1)Oc1ccc(Cl)cc1C(=O)Nc1cc(C(F)(F)F)cc(C(F)(F)F)c1 [Compound 13] | – | – | 96.6% | 98.7%
14 | O=C(COc1cccc(Cl)c1Cl)Oc1ccc(Cl)cc1C(=O)Nc1cc(C(F)(F)F)cc(C(F)(F)F)c1 [Compound 14] | – | – | 98.9% | 99.4%
15 | CC(Oc1ccccc1)C(=O)Oc1ccc(Cl)cc1C(=O)Nc1cc(C(F)(F)F)cc(C(F)(F)F)c1 (centres unmarked) [Compound 15] | – | – | 97.9% | 99.1%
16 | CC(C)(Oc1ccc(Cl)cc1)C(=O)Oc1ccc(Cl)cc1C(=O)Nc1cc(C(F)(F)F)cc(C(F)(F)F)c1 [Compound 16] | – | – | 96.6% | 98.4%

Row | SMILES | inhibition at 1 µg/mL (Drug Concentration 1 μg/mL) | inhibition at 10 µg/mL (Drug Concentration 10 μg/mL) | Inhibitory Ratio of NF-κ B Activation(%) (Drug Concentration 1 μg/mL) | Inhibitory Ratio of NF-κ B Activation(%) (Drug Concentration 10 μg/mL)
17 | CC(C)(C)OC(=O)CC(=O)Oc1ccc(Cl)cc1C(=O)Nc1cc(C(F)(F)F)cc(C(F)(F)F)c1 [Compound 17] | – | – | 97.0% | 96.8%
18 | O=C(CCC(=O)Oc1ccc(Cl)cc1C(=O)Nc1cc(C(F)(F)F)cc(C(F)(F)F)c1)OCc1ccccc1 [Compound 18] | – | – | 95.4% | 98.1%
19 | O=C(CCC(=O)N1CCCCC1)Oc1ccc(Cl)cc1C(=O)Nc1cc(C(F)(F)F)cc(C(F)(F)F)c1 [Compound 19] | – | – | 97.9% | 98.8%
20 | CC(=O)NCC(=O)Oc1ccc(Cl)cc1C(=O)Nc1cc(C(F)(F)F)cc(C(F)(F)F)c1 [Compound 20] | – | – | 94.8% | 98.1%
21 | O=C(CNC(=O)OCc1ccccc1)Oc1ccc(Cl)cc1C(=O)Nc1cc(C(F)(F)F)cc(C(F)(F)F)c1 [Compound 21] | – | – | 96.7% | 98.7%
22 | CC(C)(C)OC(=O)NCC(=O)Oc1ccc(Cl)cc1C(=O)Nc1cc(C(F)(F)F)cc(C(F)(F)F)c1 [Compound 22, 2-[N-(tert-butoxycarbonyl)glycyl]oxy-5-chloro-N-[3,5-bis(trifluoromethyl)phenyl]-benzamide] | 35.3% | 98.7% | – | –
23 | Cl.NCC(=O)Oc1ccc(Cl)cc1C(=O)Nc1cc(C(F)(F)F)cc(C(F)(F)F)c1 [Compound 23] | – | – | 19.8% | 97.3%
24 | CC(C)[C@H](NC(=O)OC(C)(C)C)C(=O)Oc1ccc(Cl)cc1C(=O)Nc1cc(C(F)(F)F)cc(C(F)(F)F)c1 [Compound 24, 2-[N-(tert-butoxycarbonyl)-L-valyl]oxy-5-chloro-N-[3,5-bis(trifluoromethyl)phenyl]-benzamide] | 96.3% | 96.8% | – | –
25 | CC(C)[C@H](N)C(=O)Oc1ccc(Cl)cc1C(=O)Nc1cc(C(F)(F)F)cc(C(F)(F)F)c1.Cl [Compound 25] | – | – | 93.4% | 97.2%
26 | CC(C)C[C@H](NC(=O)OC(C)(C)C)C(=O)Oc1ccc(Cl)cc1C(=O)Nc1cc(C(F)(F)F)cc(C(F)(F)F)c1 [Compound 26, 2-[N-(tert-butoxycarbonyl)-L-leucyl]oxy-5-chloro-N-[3,5-bis(trifluoromethyl)phenyl]-benzamide] | 97.8% | 98.9% | – | –
27 | CC(C)C[C@H](N)C(=O)Oc1ccc(Cl)cc1C(=O)Nc1cc(C(F)(F)F)cc(C(F)(F)F)c1.Cl [Compound 27] | – | – | 95.8% | 99.2%
28 | CC(C)(C)OC(=O)N[C@@H](Cc1ccccc1)C(=O)Oc1ccc(Cl)cc1C(=O)Nc1cc(C(F)(F)F)cc(C(F)(F)F)c1 [Compound 28, 2-[N-(tert-butoxycarbonyl)-L-phenylalanyl]oxy-5-chloro-N-[3,5-bis(trifluoromethyl)-phenyl]benzamide] | 96.4% | 98.4% | – | –
29 | Cl.N[C@@H](Cc1ccccc1)C(=O)Oc1ccc(Cl)cc1C(=O)Nc1cc(C(F)(F)F)cc(C(F)(F)F)c1 [Compound 29] | – | – | 90.2% | 97.5%
30 | CC(C)(C)OC(=O)C[C@H](NC(=O)OC(C)(C)C)C(=O)Oc1ccc(Cl)cc1C(=O)Nc1cc(C(F)(F)F)cc(C(F)(F)F)c1 [Compound 30] | – | – | 96.4% | 97.0%
31 | CC(C)(C)OC(=O)CC[C@H](NC(=O)OC(C)(C)C)C(=O)Oc1ccc(Cl)cc1C(=O)Nc1cc(C(F)(F)F)cc(C(F)(F)F)c1 [Compound 31, 2-[N-(tert-butoxycarbonyl)-γ-O-(tert-butyl)-α-L-glutamyl]oxy-5-chloro-N-[3,5-bis(trifluoromethyl)phenyl]benzamide] | – | – | 97.2% | 97.2%
